In ChEMBL document CHEMBL5137043, “trans, trans-2-C-Aryl-3,4-dihydroxypyrrolidines as potent and selective β-glucosidase inhibitors: Pharmacological chaperones for Gaucher disease” (Eur J Med Chem, 2022):

Key:
[1] = test system: Saccharomyces cerevisiae; assay: Inhibition of yeast alpha-glucosidase assessed as reduction of p-nitrophenol release using p-nitrophenyl-glycoside as substrate at 1000 uM by spectrophotometric analysis
[2] = Inhibition of human lysosomal beta-glucosidase assessed as reduction of p-nitrophenol release using p-nitrophenyl-glycoside as substrate by spectrophotometric analysis; format: subcellular, Lysosome
[3] = species: Bos taurus; assay: Inhibition of bovine liver beta-glucuronidase assessed as reduction of p-nitrophenol release using p-nitrophenyl-glycoside as substrate at 1000 uM by spectrophotometric analysis
[4] = species: Sus scrofa; assay: Inhibition of porcine kidney alpha-trehalase assessed as reduction of p-nitrophenol release using p-nitrophenyl-glycoside as substrate at 1000 uM by spectrophotometric analysis; format: tissue-based
[5] = target: T1, Alpha-mannosidase (Canavalia ensiformis) (UniProt C0HJB3); assay: Inhibition of jack bean alpha-mannosidase assessed as reduction of p-nitrophenol release using p-nitrophenyl-glycoside as substrate at 1000 uM by spectrophotometric analysis
T1 sequence (whole entry): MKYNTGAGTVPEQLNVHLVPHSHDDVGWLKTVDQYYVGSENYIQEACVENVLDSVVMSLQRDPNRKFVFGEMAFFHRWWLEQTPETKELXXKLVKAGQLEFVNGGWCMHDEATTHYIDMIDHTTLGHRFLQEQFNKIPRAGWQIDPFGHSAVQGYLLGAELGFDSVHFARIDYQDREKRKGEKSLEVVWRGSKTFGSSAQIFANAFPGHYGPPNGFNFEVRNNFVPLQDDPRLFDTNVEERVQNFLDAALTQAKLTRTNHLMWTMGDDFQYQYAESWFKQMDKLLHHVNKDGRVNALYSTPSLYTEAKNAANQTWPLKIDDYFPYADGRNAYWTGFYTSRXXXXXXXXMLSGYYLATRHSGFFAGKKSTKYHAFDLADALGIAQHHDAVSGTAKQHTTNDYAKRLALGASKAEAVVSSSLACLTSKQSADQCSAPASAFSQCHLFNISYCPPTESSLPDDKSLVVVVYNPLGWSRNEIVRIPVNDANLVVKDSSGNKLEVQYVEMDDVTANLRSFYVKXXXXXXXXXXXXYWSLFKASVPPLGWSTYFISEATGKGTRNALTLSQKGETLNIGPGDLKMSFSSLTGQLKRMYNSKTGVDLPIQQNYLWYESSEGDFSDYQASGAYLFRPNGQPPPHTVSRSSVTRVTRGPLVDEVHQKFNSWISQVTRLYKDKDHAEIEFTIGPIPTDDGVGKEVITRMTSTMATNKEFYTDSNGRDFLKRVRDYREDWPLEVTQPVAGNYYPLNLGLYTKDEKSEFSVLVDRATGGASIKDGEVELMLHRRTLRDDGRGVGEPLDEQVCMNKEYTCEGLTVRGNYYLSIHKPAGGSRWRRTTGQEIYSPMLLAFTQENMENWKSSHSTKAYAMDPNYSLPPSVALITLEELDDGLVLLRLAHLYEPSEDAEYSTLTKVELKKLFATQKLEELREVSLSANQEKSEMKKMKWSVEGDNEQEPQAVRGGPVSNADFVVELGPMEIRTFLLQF

[6] = test system: Penicillium decumbens; assay: Inhibition of Penicillium decumbens alpha-L-rhamnosidase assessed as reduction of p-nitrophenol release using p-nitrophenyl-glycoside as substrate at 1000 uM by spectrophotometric analysis
[7] = target: Lysosomal alpha-glucosidase (Rattus norvegicus) (UniProt Q6P7A9); assay: Inhibition of rat small intestinal maltase assessed as reduction of D-glucose release using maltose as substrate at 1000 uM by colorimetric analysis; format: tissue-based; details: Small intestine
[8] = target: Alpha-galactosidase (Coffea arabica) (UniProt Q42656); assay: Inhibition of coffee beans alpha-galactosidase assessed as reduction of p-nitrophenol release using p-nitrophenyl-glycoside as substrate at 1000 uM by spectrophotometric analysis
[9] = test system: Prunus dulcis; assay: Inhibition of almond beta-glucosidase assessed as reduction of p-nitrophenol release using p-nitrophenyl-glycoside as substrate at 1000 uM by spectrophotometric analysis
[10] = target: Sucrase-isomaltase, intestinal (Rattus norvegicus, UniProt P23739); assay: Inhibition of rat small intestinal sucrase assessed as reduction of p-nitrophenol release using p-nitrophenyl-glycoside as substrate by spectrophotometric analysis; format: tissue-based, Small intestine
[11] = test system: Oryza sativa; assay: Inhibition of rice alpha-glucosidase assessed as reduction of p-nitrophenol release using p-nitrophenyl-glycoside as substrate at 1000 uM by spectrophotometric analysis
[12] = test system: Aspergillus niger; assay: Inhibition of Aspergillus niger amyloglucosidase assessed as reduction of p-nitrophenol release using p-nitrophenyl-glycoside as substrate at 1000 uM by spectrophotometric analysis
[13] = target: T2, Tissue alpha-L-fucosidase (Bos taurus) (UniProt Q2KIM0); assay: Inhibition of bovine kidney alpha-L-fucosidase assessed as reduction of p-nitrophenol release using p-nitrophenyl-glycoside as substrate at 1000 uM by spectrophotometric analysis; format: tissue-based
T2 sequence (whole entry): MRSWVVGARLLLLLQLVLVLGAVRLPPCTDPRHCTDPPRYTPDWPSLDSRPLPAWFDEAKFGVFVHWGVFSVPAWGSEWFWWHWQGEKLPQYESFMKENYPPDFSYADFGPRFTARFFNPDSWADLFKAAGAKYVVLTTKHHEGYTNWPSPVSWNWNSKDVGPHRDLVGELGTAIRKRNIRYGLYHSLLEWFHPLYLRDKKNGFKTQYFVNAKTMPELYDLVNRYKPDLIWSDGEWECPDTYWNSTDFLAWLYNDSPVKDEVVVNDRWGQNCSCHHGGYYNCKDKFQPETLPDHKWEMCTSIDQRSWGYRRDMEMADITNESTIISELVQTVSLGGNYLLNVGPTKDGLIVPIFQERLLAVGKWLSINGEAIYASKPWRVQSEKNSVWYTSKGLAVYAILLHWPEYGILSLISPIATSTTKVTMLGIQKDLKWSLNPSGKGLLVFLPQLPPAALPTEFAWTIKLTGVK

[14] = target: Lysosomal alpha-glucosidase (Homo sapiens) (UniProt P10253); assay: Inhibition of human lysosomal alpha-glucosidase assessed as reduction of p-nitrophenol release using p-nitrophenyl-glycoside as substrate at 1000 uM by spectrophotometric analysis; details: Lysosome
[15] = species: Bos taurus; assay: Inhibition of bovine liver beta-glucosidase assessed as reduction of p-nitrophenol release using p-nitrophenyl-glycoside as substrate at 1000 uM by spectrophotometric analysis
[16] = test system: Escherichia coli; assay: Inhibition of Escherichia coli beta-glucuronidase assessed as reduction of p-nitrophenol release using p-nitrophenyl-glycoside as substrate at 1000 uM by spectrophotometric analysis
[17] = species: Bos taurus; assay: Inhibition of bovine liver beta-galactosidase assessed as reduction of p-nitrophenol release using p-nitrophenyl-glycoside as substrate at 1000 uM by spectrophotometric analysis
[18] = test system: Helix pomatia; assay: Inhibition of snail beta-mannosidase assessed as reduction of p-nitrophenol release using p-nitrophenyl-glycoside as substrate at 1000 uM by spectrophotometric analysis
[19] = target: T3, Lysosomal acid glucosylceramidase (Homo sapiens, UniProt P04062); assay: Inhibition of human GCase
T3 sequence (P04062 whole entry): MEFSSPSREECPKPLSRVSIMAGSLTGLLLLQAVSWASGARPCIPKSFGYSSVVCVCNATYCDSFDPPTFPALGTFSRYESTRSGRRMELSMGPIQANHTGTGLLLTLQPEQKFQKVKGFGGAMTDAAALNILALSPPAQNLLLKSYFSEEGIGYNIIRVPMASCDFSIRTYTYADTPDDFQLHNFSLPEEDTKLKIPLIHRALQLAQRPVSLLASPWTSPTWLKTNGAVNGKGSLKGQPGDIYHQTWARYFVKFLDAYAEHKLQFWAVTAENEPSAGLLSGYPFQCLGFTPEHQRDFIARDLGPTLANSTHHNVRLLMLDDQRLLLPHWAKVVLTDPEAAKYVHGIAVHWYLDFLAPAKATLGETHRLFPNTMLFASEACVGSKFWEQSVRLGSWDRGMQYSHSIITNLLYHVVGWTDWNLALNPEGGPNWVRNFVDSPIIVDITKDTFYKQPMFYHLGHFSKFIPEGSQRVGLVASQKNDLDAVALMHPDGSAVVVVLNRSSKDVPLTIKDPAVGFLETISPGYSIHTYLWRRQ

[20] = Inhibition of bovine liver beta-galactosidase assessed as reduction of p-nitrophenol release using p-nitrophenyl-glycoside as substrate by spectrophotometric analysis; set-up: species or system Bos taurus
[21] = Inhibition of Escherichia coli beta-glucuronidase assessed as reduction of p-nitrophenol release using p-nitrophenyl-glycoside as substrate by spectrophotometric analysis
[22] = target: Sucrase-isomaltase, intestinal (Rattus norvegicus) (UniProt P23739); assay: Inhibition of rat small intestinal sucrase assessed as reduction of p-nitrophenol release using p-nitrophenyl-glycoside as substrate at 1000 uM by spectrophotometric analysis; format: tissue-based; details: Small intestine
[23] = Inhibition of rice alpha-glucosidase assessed as reduction of p-nitrophenol release using p-nitrophenyl-glycoside as substrate by spectrophotometric analysis; set-up: species or system Oryza sativa
[24] = Inhibition of almond beta-glucosidase assessed as reduction of p-nitrophenol release using p-nitrophenyl-glycoside as substrate by spectrophotometric analysis; set-up: species or system Prunus dulcis

Lysosomal alpha-glucosidase (Rattus norvegicus), sequence (Q6P7A9 whole entry): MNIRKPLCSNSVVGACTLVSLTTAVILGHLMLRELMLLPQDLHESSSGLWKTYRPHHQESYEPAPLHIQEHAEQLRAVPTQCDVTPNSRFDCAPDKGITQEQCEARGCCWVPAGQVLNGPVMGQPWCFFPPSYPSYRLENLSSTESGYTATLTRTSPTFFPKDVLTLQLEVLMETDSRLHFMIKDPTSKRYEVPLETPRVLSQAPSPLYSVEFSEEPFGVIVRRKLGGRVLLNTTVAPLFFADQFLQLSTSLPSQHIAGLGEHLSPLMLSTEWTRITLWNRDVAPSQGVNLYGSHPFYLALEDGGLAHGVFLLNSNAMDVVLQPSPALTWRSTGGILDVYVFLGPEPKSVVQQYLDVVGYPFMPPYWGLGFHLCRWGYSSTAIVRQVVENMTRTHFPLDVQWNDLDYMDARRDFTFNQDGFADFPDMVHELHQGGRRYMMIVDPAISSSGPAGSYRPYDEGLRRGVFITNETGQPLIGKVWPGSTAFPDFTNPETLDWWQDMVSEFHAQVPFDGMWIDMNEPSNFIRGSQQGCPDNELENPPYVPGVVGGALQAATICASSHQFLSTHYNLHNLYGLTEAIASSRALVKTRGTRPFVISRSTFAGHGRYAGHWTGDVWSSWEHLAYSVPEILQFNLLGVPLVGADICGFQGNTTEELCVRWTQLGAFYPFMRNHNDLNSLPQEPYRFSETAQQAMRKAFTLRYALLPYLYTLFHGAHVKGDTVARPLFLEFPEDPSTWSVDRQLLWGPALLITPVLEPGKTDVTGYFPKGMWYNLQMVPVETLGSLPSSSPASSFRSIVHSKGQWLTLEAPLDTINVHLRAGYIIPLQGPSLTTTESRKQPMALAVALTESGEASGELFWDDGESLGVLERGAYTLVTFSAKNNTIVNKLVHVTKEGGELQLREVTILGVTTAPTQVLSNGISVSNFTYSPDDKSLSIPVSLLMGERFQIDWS
Alpha-galactosidase (Coffea arabica), sequence (Q42656 16-378 limits assumed): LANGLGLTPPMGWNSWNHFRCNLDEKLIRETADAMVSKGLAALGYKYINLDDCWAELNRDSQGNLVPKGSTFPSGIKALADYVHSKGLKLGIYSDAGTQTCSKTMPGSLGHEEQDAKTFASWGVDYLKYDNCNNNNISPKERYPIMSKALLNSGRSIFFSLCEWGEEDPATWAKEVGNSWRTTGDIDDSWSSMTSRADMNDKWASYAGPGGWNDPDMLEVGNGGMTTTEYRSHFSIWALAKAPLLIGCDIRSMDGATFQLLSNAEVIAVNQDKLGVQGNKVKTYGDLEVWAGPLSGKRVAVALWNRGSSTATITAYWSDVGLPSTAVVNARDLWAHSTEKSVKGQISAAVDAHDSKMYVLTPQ
Sucrase-isomaltase, intestinal, sequence (P23739 1-1013 limits assumed): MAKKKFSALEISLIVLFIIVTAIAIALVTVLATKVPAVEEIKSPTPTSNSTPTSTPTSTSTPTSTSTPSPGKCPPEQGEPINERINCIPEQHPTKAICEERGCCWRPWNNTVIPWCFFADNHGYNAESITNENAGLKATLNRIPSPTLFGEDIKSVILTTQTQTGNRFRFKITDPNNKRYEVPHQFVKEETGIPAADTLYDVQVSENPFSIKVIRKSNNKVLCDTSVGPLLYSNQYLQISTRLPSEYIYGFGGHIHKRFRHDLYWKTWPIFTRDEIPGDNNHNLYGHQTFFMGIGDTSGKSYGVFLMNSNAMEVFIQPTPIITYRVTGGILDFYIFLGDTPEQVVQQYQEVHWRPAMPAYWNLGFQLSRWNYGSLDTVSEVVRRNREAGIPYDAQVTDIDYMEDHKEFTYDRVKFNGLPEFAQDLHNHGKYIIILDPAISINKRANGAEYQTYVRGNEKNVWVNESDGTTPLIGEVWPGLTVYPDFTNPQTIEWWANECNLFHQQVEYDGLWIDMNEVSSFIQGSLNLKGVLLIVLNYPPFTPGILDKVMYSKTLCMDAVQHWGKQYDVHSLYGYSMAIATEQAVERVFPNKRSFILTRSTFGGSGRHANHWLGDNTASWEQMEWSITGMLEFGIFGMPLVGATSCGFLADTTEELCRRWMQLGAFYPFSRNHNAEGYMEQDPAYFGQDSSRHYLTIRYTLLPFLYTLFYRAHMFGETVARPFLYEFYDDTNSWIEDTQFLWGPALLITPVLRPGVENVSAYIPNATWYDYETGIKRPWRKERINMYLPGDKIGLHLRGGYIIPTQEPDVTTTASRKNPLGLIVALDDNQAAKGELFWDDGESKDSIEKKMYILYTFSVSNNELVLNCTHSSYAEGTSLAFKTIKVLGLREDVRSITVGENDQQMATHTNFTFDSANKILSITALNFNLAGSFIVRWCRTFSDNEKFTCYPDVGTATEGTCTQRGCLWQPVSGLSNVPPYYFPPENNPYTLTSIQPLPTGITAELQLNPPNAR
Sucrase-isomaltase, intestinal, sequence (P23739 1014-1841 limits assumed): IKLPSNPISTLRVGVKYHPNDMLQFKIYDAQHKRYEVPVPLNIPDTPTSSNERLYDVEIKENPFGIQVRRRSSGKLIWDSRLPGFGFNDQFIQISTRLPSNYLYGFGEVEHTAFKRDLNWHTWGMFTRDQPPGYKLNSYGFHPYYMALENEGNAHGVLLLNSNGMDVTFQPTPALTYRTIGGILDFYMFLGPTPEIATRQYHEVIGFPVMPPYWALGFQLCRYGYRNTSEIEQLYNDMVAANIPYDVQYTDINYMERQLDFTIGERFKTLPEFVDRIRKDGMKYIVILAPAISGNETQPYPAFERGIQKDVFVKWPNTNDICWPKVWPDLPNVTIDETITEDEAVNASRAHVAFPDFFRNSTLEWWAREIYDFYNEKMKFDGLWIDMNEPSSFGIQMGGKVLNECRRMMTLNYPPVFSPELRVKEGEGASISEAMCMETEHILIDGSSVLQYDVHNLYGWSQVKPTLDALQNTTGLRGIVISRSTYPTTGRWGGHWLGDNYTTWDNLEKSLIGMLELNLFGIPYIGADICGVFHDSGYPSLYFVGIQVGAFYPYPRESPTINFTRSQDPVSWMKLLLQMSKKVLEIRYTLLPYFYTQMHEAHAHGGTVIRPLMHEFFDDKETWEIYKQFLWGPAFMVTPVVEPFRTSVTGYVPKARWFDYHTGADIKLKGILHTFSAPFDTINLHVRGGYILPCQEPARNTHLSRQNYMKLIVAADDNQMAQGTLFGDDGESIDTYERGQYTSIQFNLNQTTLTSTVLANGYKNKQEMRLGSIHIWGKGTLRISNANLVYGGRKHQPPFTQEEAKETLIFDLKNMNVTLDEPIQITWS
Sucrase-isomaltase, intestinal (Rattus norvegicus), sequence (P23739 1-1013 limits assumed): as the sequence (P23739 1-1013 limits assumed) above
Sucrase-isomaltase, intestinal (Rattus norvegicus), sequence (P23739 1014-1841 limits assumed): as the sequence (P23739 1014-1841 limits assumed) above

SMILES | inhibition [1] | IC50 [2] | inhibition [3] | inhibition [4] | inhibition [5] | inhibition [6] | inhibition [7] | inhibition [8] | inhibition [9] | IC50 [10] | inhibition [11] | inhibition [12] | inhibition [13] | inhibition [14] | inhibition [15] | inhibition [16] | inhibition [18] | IC50 [20] | IC50 [21] | also measured
O[C@H]1[C@H](O)CN[C@@H]1c1ccc(F)cc1 | 5.6% | 6.2 µM | 2% | 1.6% | 0.8% | 0% | 14% | 2% | 15% | 339 µM | 47.3% | 0% | 0% | 13.4% | 29% | 43.4% | 4.8% | – | – | inhibition [17]: 39.9%
CCCCCCCCCC1NC[C@@H](O)[C@H](O)[C@H]1O (stereo partly specified) | – | – | – | – | – | – | – | – | – | – | – | – | – | – | – | – | – | – | – | IC50 [19]: 0.0068 µM
Cc1ccc([C@H]2NC[C@@H](O)[C@@H]2O)cc1 | 11% | 3.4 µM | 0.3% | 0% | 0% | 2.8% | 24.6% | 0% | 13.5% | 1210 µM | 22.8% | 0% | 4.2% | 15% | 38.2% | – | 1.9% | 602 µM | 269 µM | –
O[C@@H]1[C@@H](O)CN[C@H]1c1ccc(F)cc1 | 8.6% | 13 µM | 0% | 6.5% | 1.2% | 8.3% | 25.6% | 16.6% | 12.6% | 117 µM | 41.8% | 0% | 0% | 30% | 14.8% | 26.8% | 2.2% | – | – | inhibition [17]: 25.2%
O[C@H]1[C@H](O)CN[C@@H]1c1ccccc1 | 0.3% | 11 µM | 15% | 6.1% | 8.3% | 0.5% | 12.4% | 8.6% | 3.9% | – | – | 2% | 0% | 29% | 43.7% | 20.3% | 10.1% | 441 µM | – | inhibition [22]: 39.9%; IC50 [23]: 466 µM
Cc1ccc([C@@H]2NC[C@H](O)[C@H]2O)cc1 | 5.3% | 8.7 µM | 0.3% | 17.6% | 0.4% | 2.3% | 23.1% | 0% | 11% | 389 µM | 15.8% | 2.3% | 0% | 4.8% | 46.4% | – | 2.2% | 470 µM | 610 µM | –
O[C@@H]1[C@@H](O)CN[C@H]1c1ccccc1 [listing 1 of 3 here] | 0.3% | – | 15% | 5.7% | 2% | 1.8% | 16.5% | 2.6% | 3.4% | – | – | 0% | 0% | 24.6% | 31.7% | 8.5% | 1.1% | – | – | inhibition [17]: 49%
O[C@H]1[C@H](O)CN[C@@H]1CCCc1ccccc1 | 28.5% | 3.1 µM | 0.3% | 5.3% | 20.6% | 8.3% | – | 0% | – | 264 µM | 38% | 0% | 6.2% | 26.5% | 42.1% | – | 5.6% | 578 µM | 910 µM | IC50 [24]: 565 µM
O[C@@H]1[C@@H](O)CN[C@H]1c1ccccc1 [listing 2 of 3 here] | – | – | – | – | – | – | – | – | – | – | – | – | – | – | – | – | – | – | – | IC50 [19]: 26.5 µM
O[C@@H]1[C@@H](O)CN[C@H]1c1ccccc1 [listing 3 of 3 here] | – | 22 µM | – | – | – | – | – | – | – | 603 µM | – | – | – | – | – | – | – | – | – | IC50 [23]: 560 µM
O[C@H]1[C@H](O)CN[C@@H]1c1ccc(-c2ccccc2)cc1 | 10.1% | 0.76 µM | 2.3% | 13.1% | 0% | 0% | 15.8% | 0% | – | – | 19% | 0% | 0% | 2.9% | 39.9% | – | 9.7% | 328 µM | 281 µM | inhibition [22]: 47.4%; IC50 [24]: 285 µM
CCCCCCO[C@H]1CNC[C@@H](O)[C@@H]1O | – | – | – | – | – | – | – | – | – | – | – | – | – | – | – | – | – | – | – | IC50 [19]: 0.009 µM
